ChEMBL document CHEMBL1158329, “Four new cytotoxic germacranolides from Carpesium divaricatum” (1997)
Values after ≈ are worked out from the molar mass of the structure shown.

Columns and labels:
Format in all cases: functional
Conditions in all cases: read-out: ED50 (the source's name)
SK-MEL-2 = assay: Cytotoxicity against human SK-MEL-2 cells by SRB assay
A549 = assay: Cytotoxicity against human A549 cells by SRB assay
SK-OV-3 = assay: Cytotoxicity against human SKOV3 cells by SRB assay
XF498 = assay: Cytotoxicity against human XF498 cells by SRB assay
HCT-15 = assay: Cytotoxicity against human HCT15 cells by SRB assay

Compound	EC50 (SK-MEL-2) [µg/mL]	EC50 (A549) [µg/mL]	EC50 (SK-OV-3) [µg/mL]	EC50 (XF498) [µg/mL]	EC50 (HCT-15) [µg/mL]
C=C1C(=O)O[C@@H]2[C@@H]1[C@H](OC(=O)C(C)C)C(=O)[C@@H](C)C[C@H](O)C[C@](C)(O)[C@H]2OC(=O)C(C)C [CARDIVIN D]	1.88 (≈ 4.14 µM)	8.36 (≈ 18.4 µM)	3.78 (≈ 8.32 µM)	3.05 (≈ 6.71 µM)	3 (≈ 6.6 µM)
C=C1C(=O)O[C@@H]2[C@@H]1[C@H](OC(=O)C(C)C)C(=O)[C@@H](C)C[C@H](O)C[C@](C)(O)[C@H]2OC(=O)/C(C)=C\C [CARDIVIN C]	1.08 (≈ 2.31 µM)	3.12 (≈ 6.69 µM)	1.6 (≈ 3.43 µM)	1.31 (≈ 2.81 µM)	1.38 (≈ 2.96 µM)
COc1cccc2c1C(=O)c1c(O)c3c(c(O)c1C2=O)C[C@@](O)(C(=O)CO)C[C@@H]3O[C@H]1C[C@H](N)[C@H](O)[C@H](C)O1 [DOXORUBICIN]	0.11 (≈ 0.202 µM)	0.12 (≈ 0.221 µM)	0.13 (≈ 0.239 µM)	0.23 (≈ 0.423 µM)	2.4 (≈ 4.42 µM)
C=C1C(=O)O[C@@H]2[C@@H]1[C@H](OC(=O)C(C)CC)C(=O)[C@@H](C)C[C@H](O)C[C@](C)(O)[C@H]2OC(=O)C(C)C (stereo not given in full) [CARDIVIN B]	1.45 (≈ 3.09 µM)	3.71 (≈ 7.92 µM)	2.24 (≈ 4.78 µM)	1.69 (≈ 3.61 µM)	2.06 (≈ 4.4 µM)
C=C1C(=O)O[C@@H]2[C@@H]1[C@H](OC(=O)/C(C)=C\C)C(=O)[C@@H](C)C[C@H](O)C[C@](C)(O)[C@H]2OC(=O)C(C)CC (stereo not given in full) [CARDIVIN A]	1.16 (≈ 2.41 µM)	3.17 (≈ 6.6 µM)	1.47 (≈ 3.06 µM)	1.4 (≈ 2.91 µM)	1.28 (≈ 2.66 µM)
